Assay results from the RepoRT retention time repository (doi:10.1016/j.foodchem.2021.129757).

Assays:
Conditions in all cases: stereoisomer not certain
[1] = RP, Merck LiChrospher RP-18, 250 × 4 mm, 5 µm, 35 °C, 0.3 mL/min, estimated dead time 6.7 min; A: water + 0.5% formic acid; B: acetonitrile + 0.5% formic acid; gradient (min/%B) 0/5 10/5 30/15 45/20 65/20 95/54 110/63 115/5 135/5
[2] = RP, Waters ACQUITY UPLC BEH Shield RP18, 150 × 2.1 mm, 1.7 µm, 40 °C, 0.4 mL/min, estimated dead time 0.83 min; A: water + 0.1% formic acid, pH 3; B: acetonitrile + 0.1% formic acid, pH 3; gradient (min/%B) 0/0 30/50 31/100 37/100 37.1/0
[3] = RP, Phenomenex Synergi Hydro-RP, 250 × 2 mm, 4 µm, 25 °C, 0.2 mL/min, estimated dead time 2.5 min; A: water + 0.1% formic acid, pH 3; B: acetonitrile + 0.1% formic acid, pH 3; gradient (min/%B) 0/0.5 7/0.5 12/12.5 25/16.3 47/35 48/65 50/65 50.1/0.5
[4] = RP, Waters Atlantis T3, 100 × 2.1 mm, 3 µm, 40 °C, 0.3 mL/min, estimated dead time 0.73 min; A: water + 0.1% trifluoroacetic acid, pH 2; B: acetonitrile + 0.1% trifluoroacetic acid, pH 2; gradient (min/%B) 0/10 1/10 6/40 7/50 8/50 14/70 16/80 20/10 25/10
[5] = RP, 150 × 2.1 mm, 2.6 µm, 40 °C, 0.35 mL/min, estimated dead time 0.94 min; A: water + 0.1% formic acid, pH 3; B: acetonitrile + 0.1% formic acid, pH 3; gradient (min/%B) 0/0 1/0 12.5/100 14/100 14.2/0 15/0
[6] = RP, 150 × 2.1 mm, 2.6 µm, 40 °C, 0.35 mL/min, estimated dead time 0.94 min; A: water + 0.1% formic acid, pH 3; B: acetonitrile + 0.1% formic acid, pH 3; gradient (min/%B) 0/0 1/5 7/45 8.5/80 10.5/80 11/5 12/5
[7] = RP, 50 × 0.5 mm, 2.7 µm, 35 °C, 0.01 mL/min, estimated dead time 0.62 min; A: water + 0.1% formic acid, pH 3; B: acetonitrile + 0.1% formic acid, pH 3; gradient (min/%B) 0/5 12/95 14/95 16/5
[8] = RP, Phenomenex Luna Omega Polar C18, 100 × 2.1 mm, 1.6 µm, 40 °C, 0.5 mL/min, estimated dead time 0.44 min; A: water + 0.5% formic acid; B: acetonitrile + 0.5% formic acid; gradient (min/%B) 0/5 3/50 3.1/100 5/100 5.1/5 7/5
[9] = RP, Waters ACQUITY UPLC HSS T3, 100 × 2.1 mm, 50 °C; A: water + 0.1% formic acid, pH 3; B: 30% methanol + 70% acetonitrile + 0.1% formic acid, pH 3; gradient (min/%B) 0/5 1/8 2/15 3/40 4/70 4.5/100 5/100 6.4/100 6.6/5 6.8/5 7/5
[10] = RP, Waters ACQUITY UPLC HSS T3, 100 × 2.1 mm, 1.8 µm, 30 °C, 0.4 mL/min, estimated dead time 0.55 min; A: water + 0.1% formic acid, pH 3; B: acetonitrile + 0.1% formic acid, pH 3; gradient (min/%B) 0/0 2/0 15/100 22/100 22.1/0 26/0
[11] = RP, Waters ACQUITY UPLC BEH Shield RP18, 100 × 2.1 mm, 1.7 µm, 30 °C, 0.6 mL/min, estimated dead time 0.37 min; A: water + 0.1% formic acid, pH 3; B: acetonitrile + 0.1% formic acid, pH 3; gradient (min/%B) 0/0 2/0 7/10 22/95 22.1/0 26/0
[12] = RP, Agilent InfinityLab Poroshell 120 EC-C18, 100 × 3 mm, 2.7 µm, 25 °C, 0.4 mL/min, estimated dead time 1.1 min; A: water + 0.1% formic acid, pH 3; B: acetonitrile + 0.1% formic acid, pH 3; gradient (min/%B) 0/5 10/25 20/40 24/90 25/90 26/5 30/5
[13] = RP, Phenomenex Synergi Hydro-RP, 150 × 2 mm, 4 µm, 30 °C, 0.5 mL/min, estimated dead time 0.6 min; A: water + 0.1% formic acid, pH 3; B: acetonitrile + 0.1% formic acid, pH 3; gradient (min/%B) 0/5 1/5 35/45 40/100 45/100
[14] = RP, Phenomenex Luna C18, 150 × 4.6 mm, 3 µm, 25 °C, 0.5 mL/min, estimated dead time 3.2 min; A: water + 0.1% formic acid, pH 3; B: acetonitrile + 0.1% formic acid, pH 3; gradient (min/%B) 0/0 30/30 35/40 50/80 52/80 60/0 65/0

`O=Cc1ccc(CO)o1` [5-Hydroxymethylfurfural] showed an LC retention time [1] of 24.2 min.

`CC1OC(OCC2OC(Oc3cc4c(O)cc(O)cc4[o+]c3-c3ccc(O)c(O)c3)C(O)C(O)C2O)C(O)C(O)C1O` (stereo unspecified) [Cyanidin-3-O-rutinoside] gave an LC retention time [1] of 49.6 min and an LC retention time [2] of 6.43 min.

Compound `CCOC(=O)C=Cc1ccc(O)c(O)c1` [Ethyl Caffeate] has an LC retention time [1] of 92.7 min.

Compound `CCOC(=O)c1cc(O)c(O)c(O)c1` [Ethyl Gallate] has an LC retention time [1] of 53.9 min.

`COc1cc(-c2oc3cc(O)cc(O)c3c(=O)c2OC2OC(CO)C(O)C(O)C2O)ccc1O` (stereo unspecified) [Isorhamnetin-3-O-glucoside] gave an LC retention time [1] of 78.5 min, an LC retention time [3] of 38.7 min and an LC retention time [4] of 7.94 min.

With `COc1cc(-c2oc3cc(O)cc(O)c3c(=O)c2OC2OC(COC3OC(C)C(O)C(O)C3O)C(O)C(O)C2O)ccc1O` (stereo unspecified) [Isorhamnetin-3-O-rutinoside] the LC retention time [5] was 5.8 min, the LC retention time [6] was 5.95 min and the LC retention time [1] was 71.3 min.

In the case of `CCC=CCC1C(=O)CCC1CC(=O)O` (stereo unspecified) [Jasmonic Acid], the LC retention time [1] is reported as 96.2 min.

In the case of `O=c1cc(-c2ccc(O)c(O)c2)oc2cc(OC3OC(CO)C(O)C(O)C3O)cc(O)c12` (stereo unspecified) [Luteolin 7-glucoside], the LC retention time [5] is reported as 5.68 min, the LC retention time [6] is reported as 5.79 min and the LC retention time [1] is reported as 62.2 min. It also gave an LC retention time [2] of 12.4 min and an LC retention time [4] of 7.79 min.

`OC1C(O)C(O)C(O)C(O)C1O` (stereo unspecified) [Myo-inositol] showed an LC retention time [7] of 2.65 min, an LC retention time [8] of 0.54 min and an LC retention time [9] of 0.461 min. The LC retention time [10] was 0.86 min, the LC retention time [11] was 0.58 min and the LC retention time [2] was 1.01 min.

Compound `O=C1CC(c2ccc(O)cc2)Oc2cc(O)cc(O)c21` (stereo unspecified) [Naringenin] has an LC retention time [5] of 7.61 min, an LC retention time [6] of 7.97 min and an LC retention time [1] of 95.6 min. The LC retention time [10] was 11.6 min, the LC retention time [2] was 21.1 min and the LC retention time [12] was 16.3 min. For the same compound, the LC retention time [4] was 10.1 min.

For `O=S(=O)(O)Oc1c(O)cccc1O` [Pyrogallol-2-O-sulfate], the LC retention time [13] was 3.77 min.

`O=c1c(O)c(-c2ccc(OC3OC(CO)C(O)C(O)C3O)c(O)c2)oc2cc(O)cc(O)c12` (stereo unspecified) [Quercetin 4-O-glucoside] showed an LC retention time [5] of 6.09 min, an LC retention time [1] of 78 min and an LC retention time [4] of 7.94 min.

Compound `O=c1c(O)c(-c2ccc(OS(=O)(=O)O)c(O)c2)oc2cc(OS(=O)(=O)O)cc(O)c12` [Quercetin disulfate] has an LC retention time [7] of 4.84 min and an LC retention time [14] of 31.6 min.

`C[N+]1(C)CCCC1C(=O)[O-]` (stereo unspecified) [Stachydrine] gave an LC retention time [8] of 0.61 min, an LC retention time [9] of 0.545 min and an LC retention time [10] of 1.03 min. For the same compound, the LC retention time [11] was 0.65 min and the LC retention time [2] was 1.06 min.
